Earlier results on 1 substance are cited in EP0606683B1, “Means for diagnosis of angiogenic diseases” (INSTITUT FÜR DIAGNOSTIKFORSCHUNG GmbH AN DER FREIEN …, priority 1993, dated 2003).

Data set [1] relates to deendothelisierten Bereichen der Aorta. The following applies: rabbit, abdominal aorta de-endothelialised by balloon catheter; Kurata et al. 1992.
For data set [2], the system named is humanen atheromatösen Koronararterien. To be noted: in vitro incubation; Dashwood et al., 1991.

Turning to “^125I-Endothelin 1: ^125I-labelled Endothelin 1, ein Polypeptid aus 21 Aminosäuren; used in cited literature studies”, in data set [1], the “Aufnahme von ^125I-Endothelin 1 in den deendothelisierten Bereichen der Aorta” value is “vermehrte Aufnahme”. For the same substance, the “Bindung von ^125I-Endothelin 1 im Bereich der Tunica media sowie in Bereichen der Vasa vasora” value in data set [2] is recorded as “vermehrte Bindung”.
